Measurements from patent US20260231944A1, “ANTISEPTIC CONDITIONING FORMULATIONS” (THOMMES MEDICAL AG, priority 2023, published 2026).
Each block holds one molecule with its values, some of them ahead of it.

Key:
[1] = precipitation test of PHMB and CHX in alkaline buffers (visual inspection/visible clouding); type: physicochemical
[2] = tested on: Human periodontal ligament fibroblasts (HPDLF); assay: cell viability of human primary cells after antiseptics in T. buffer, AlamarBlue assay; type: cell-based
Description: Human periodontal ligament fibroblasts (HPDLF) were used in this study as test system, imitating closer the in vivo situation. The fibroblasts were purchased from ATCC and cultured in ScienCell FM medium, supplemented with 2% fetal bovine serum, 1% fibroblast growth factor and 1% penicillin-streptomycin (Sigma-Aldrich, Switzerland) in T75 flasks at 37° C. and 5% CO2.
To study the effect of antiseptic substances, at concentrations that are currently used in marketed products, the vitality of HPDLF cells was assessed. […] As a control, cells were incubated with T. buffer without antiseptic agent. Three replicate wells per concentration were tested. After 1 minute of incubation at 37°, the supernatant was removed and the wells were washed once with 600 μl of the fresh medium. Thereafter, cells were incubated with 600 µL of the fresh medium containing 0.015 mg/ml AlamarBlue dye, for 4 hours at 37° C. Finally, 100 μL of the medium were removed from each well and transferred to a new 96-well plate and the absorbance was measured using a BioTek microplate reader (test wavelength: 570 nm; reference wavelength: 630 nm).
After the incubation with the antiseptic agents, the metabolic activity was measured using an AlamarBlue assay (after 4 h).

Description for L929 murine fibroblasts: Mouse fibroblasts (L929 cell line) were used in this study as recommended cell line for cytotoxicity testing in accordance with EN ISO 10993-5.
The fibroblasts were purchased from ATCC and cultured in Dulbecco's Modified Eagle Medium-high glucose, supplemented with 10% fetal bovine serum and 1% penicillin-streptomycin (Sigma-Aldrich, Switzerland) in T75 flasks at 37° C. and 5% CO2. For the performance of the cytotoxicity experiments, L929 cells were seeded onto 96-well cell culture plates, 100 μ/well, at a density of 1×10^6 cells/mL to reach about 80% confluence after 24 hours.
After 60 minutes of incubation at 37°, the medium was removed and the wells were washed once with 100 μl of the fresh medium.
Thereafter, cells were incubated with 100 μL of the fresh medium containing 0.015 mg/ml AlamarBlue dye, for 2 hours at 37° C.
Finally, 100 μL of the media were removed from each well and transferred to a new 96-well plate and the absorbance was measured using a BioTek microplate reader (test wavelength: 570 nm; reference wavelength: 630 nm).
In order to test the cytocompatibility of alkaline buffers, a similar experiment was performed. However, the alkaline buffers were incubated for 10 minutes instead of 60 minutes. […]
After the incubation time, the metabolic activity, used as an indirect marker for cytotoxicity, was measured with an AlamarBlue assay. […]

- precipitation ([1]; CHX 0.06% in 0.05 M NaOH/0.05 M glycine, pH 11.06): precipitation occurs
- precipitation ([1]; CHX 0.06% in 0.05 M NaOH/0.1 M glycine, pH 9.9): no precipitation
Compound: [H]/N=C(\N/C(=N/[H])NCCCCCCNC(=N)NC(=N)Nc1ccc(Cl)cc1)Nc1ccc(Cl)cc1 [CHX, 1,6-bis(4-chloro-phenylbiguanido)hexane]
- cell viability ([2]; CHX 0.06 and 0.12% in T. buffer, 1 minute): Low cell viability

Compound: C[S+](C)[O-] [DMSO]
- cell viability ([2]; 5% DMSO (negative control)): low cell viability

Compound: [Na+].[OH-] [sodium hydroxide]
- metabolic activity (AlamarBlue) (L929 murine fibroblasts): significant reduction in metabolic activity
